One series has as its system HPAFII cells. As to the kind of experiment: Growth assay (IncuCyte confluence), HPAFII. The format is cell-based, human. On the set-up: key to Growth (Figure 6A) / cell confluence (Figure 6F): % confluence. The conditions noted are these: Bay876 1uM, replicates 1-3. Here is the method:
(§1) Cells were seeded on 96-well flat bottom plates at approximately 3000 cells/well and incubated in growth medium (DMEM/F12 supplemented with 10% FBS, 2 mM glutamine) for 24 h. The next day, the growth medium was aspirated and exchanged with 300 μL/well of growth medium containing compounds at the indicated concentration. For live cell analysis, plates were placed in the IncuCyte system (Essen Bioscience), which was housed in a cell incubator (37°C, humidified atmosphere composed of 95% air and 5% CO2) and confluence measured at 6-h intervals or at the assay endpoint when untreated control cells reached a confluency >90%. Antibiotics (10 U/mL penicillin and 10 μg/ml streptomycin) were included in the treatment solutions.
(§2) Growth curves were generated using the Gompertz function of OriginPro software: y=ae^−e^(−k(x−xc))
(§3) Where a is the maximum confluence or upper asymptote, k is the growth rate coefficient, xc is the time point at which 50% confluence is reached (inflection point) and e is Euler’s number. Cell growth data are shown as % confluence.
(§4) Synergism between drug combinations was quantified using ZIP synergy scoring as calculated by SynergyFinder ([Yadav et al., 2015]).

Series [1] deals with HCC1806 cells. As to the kind of experiment: Growth assay (IncuCyte confluence), HCC1806. The conditions noted are these: Bay876 alone. The format is cell-based, human. Here is the method:
as §1, §2, §3

Another series concerns MDA-MB-231 cells. As to the kind of experiment: Growth assay (IncuCyte confluence), MDA-MB-231. Type of series: cell-based, human. Also noted: key to Growth (Figure 6A) / cell confluence (Figure 6F): % confluence. As to conditions: MDA-MB-231; Bay876 1uM; replicates 1-3. The protocol: as §1, §2, §3, §4
The test system of series [2] is HCC1806 cells. As to the kind of experiment: Assay of glycolytic activity (extracellular lactate). As to conditions: > 0.1 μM Bay-876. Type of series: cell-based, human. Here is the method:
Glycolytic activity was measured by detecting extracellular lactate levels over a 48-h time course. HCC1806 and HPAFII cells were seeded on a 24-well plate at approximately 500,000 and 700,000 cells/well, respectively, and incubated in growth medium overnight. The following day, the growth medium was aspirated and each well was washed once with growth medium and 1.3 ml of the treatment solution was added to begin the time-course. In addition to sampling the medium at the start of the experiment, 50 μL was collected from each well at the following time points: 9, 24 and 48 h. Samples were stored at −20°C until further use. Lactate was detected by an enzymatic assay, which consisted of combining in microcentrifuge tubes: 5 μl of sample, 45 μl of water; 25 μl of 40 mM NAD^+; 421 μl of buffer (1M glycine, 600 mM hydrazine sulfate, 5.6 mM EDTA; adjusted to pH 9.5 with sodium hydroxide); and 4 μL of L-lactate dehydrogenase solved at 300U/mL (3.33 mg/ml). The tubes were briefly vortexed and incubated for 15 min before transferring 200 μL of the mixture to a 96-well plate. The calibration curve spanned final concentrations from 5 to 500 μM. Absorbance was measured at 340 nm to detect NADH. Lactate production was normalised to total cellular protein per well as measured by the Bradford assay.

Series [3] deals with HCC1806 cells. As to the kind of experiment: Glutamine in media supernatant by LC-MS (glutamine consumption). The format is cell-based, human. As to conditions: Bay-876 1 μM. Here is the method: Amino acids were analyzed with an Orbitrap Q-Exactive Plus coupled to an UltiMate 3000 RSLCnano system (Thermo Fisher) as described previously ([Gauthier-Coles et al., 2021]).
Details of series [4]: method as in Kopitz et al., 2016. The conditions noted are these: mice, cancer therapeutic dose; ref Kopitz et al., 2016; cited from earlier work.
The test system of a further series is SKOV3 xenografts. On the set-up: method as in Ma et al., 2018. The conditions noted are these: mice, ref Ma et al., 2018, cited from earlier work.
Series [5] addresses T1, GLUT1 (Homo sapiens, UniProt P11166).
T1 sequence (P11166 1-492): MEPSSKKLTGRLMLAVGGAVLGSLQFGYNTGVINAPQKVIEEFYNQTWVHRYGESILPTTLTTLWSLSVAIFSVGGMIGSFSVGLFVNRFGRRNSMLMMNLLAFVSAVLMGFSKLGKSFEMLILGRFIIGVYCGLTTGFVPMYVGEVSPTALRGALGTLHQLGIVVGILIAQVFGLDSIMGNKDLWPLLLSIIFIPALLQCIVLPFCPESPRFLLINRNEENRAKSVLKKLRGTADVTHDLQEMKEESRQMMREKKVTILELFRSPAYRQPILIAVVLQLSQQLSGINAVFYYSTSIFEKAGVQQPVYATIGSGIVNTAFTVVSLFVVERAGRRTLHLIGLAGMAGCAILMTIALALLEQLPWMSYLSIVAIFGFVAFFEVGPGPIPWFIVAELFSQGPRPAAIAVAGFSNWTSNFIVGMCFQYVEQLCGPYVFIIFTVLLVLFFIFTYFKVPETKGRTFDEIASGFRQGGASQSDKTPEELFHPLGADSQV
In words: [14C]glucose uptake in SKOV3 cells. The format is cell-based. On the set-up: endogenous in cells; host or cells: SKOV3 (A19). Here is the method:
(§5) […] Modified Hanks HEPES-buffered salts solution (mHBSS; 137 mM NaCl; 5.4 mM KCl; 2.7 mM K2HPO4; 1 mM CaCl2; 0.5 mM MgCl2; 0.44 mM KH2PO4; 0.4 mM MgSO4; 5 mM D-glucose; 5 mM HEPES; pH 7.4) was used to wash and incubate cells where sodium dependent transport was measured, while N-methyl-D-glucamine (NMDG) and potassium salts substituted sodium in NMDG mHBSS to measure sodium independent uptake. For the assay, cells were seeded in 35 mm dishes and, once confluent, […] of ≥2000 cpm/nmol ([…]). After 6 min, cells were washed thrice with ice-cold mHBSS, lysed with 500 µl of 0.1 M HCl, detached with a cell scraper and triturated. A 400 µl aliquot was used for scintillation counting, while the remainder was saved for protein mass quantification by Bradford assay. Transport rates were normalised to the protein content of the culture dish.

The target in series [6] is T1, GLUT1. In words: [14C]glucose uptake in MDA-MB-231 cells. The format is cell-based. Also noted: endogenous in cells; host or cells: MDA-MB-231 (A17).
The target of series [7] is T1, GLUT1. In words: [14C]glucose uptake in HPAFII cells. Type of series: cell-based. On the set-up: endogenous in cells; host or cells: MDA-MB-231 (A17), HPAFII (A18), SKOV3 (A19). The protocol:
as §5

Values joined by “and” are separate entries in the source; they are usually repeats but may differ in a detail not shown here. Equal entries are not always repeated.

On to `Cc1c(NC(=O)c2cc(C(N)=O)nc3cc(F)ccc23)c(C(F)(F)F)nn1Cc1ccc(C#N)cc1` [Bay-876], for which the “cell confluence (Figure 6F)” value in the series on HPAFII cells is 97.55 and 97.2 and 90.5; in the series with MDA-MB-231 cells, 97.85 and 98.65 and 98.1. Besides, the “growth of HCC1806 cells” value in the series on HCC1806 cells [1] is reported as “quite sensitive”. In addition, the lactate production result in the series on HCC1806 cells [2] was “blocked completely”. For the same compound, the glutamine consumption entry in the series on HCC1806 cells [3] was “accelerated”. In series [4], the “oral availability and tolerability” value was “orally available and tolerated in mice”. The lethality entry in the series on SKOV3 xenografts (dose raised from 4.0 mg/kg/day to 7.5 mg/kg/day, 18-days treatment) was “caused the death of all animals”. The body weight result with SKOV3 xenografts was “did not reduce body weight”. Also, the tumour growth result in the series on SKOV3 xenografts is reported as “reduced the growth of SKOV3 xenografts”. For the same compound, the “inhibition of glucose uptake” value on GLUT1 [5] (1 µM, 100 µM glucose) is “inhibited glucose uptake to comparable levels as 2-DG”; against GLUT1 [6] (1 µM, 100 µM glucose) it was “inhibited glucose uptake to comparable levels as 2-DG”; against GLUT1 [7] (1 µM, 100 µM glucose) it was “inhibited glucose uptake to comparable levels as 2-DG”. The “Glucose uptake (nmol / mg protein x 6 min)” value at GLUT1 [5] (SKOV3, 1uM) was 2.054 nmol / mg protein x 6 min and 1.028 nmol / mg protein x 6 min and 1.361 nmol / mg protein x 6 min; at GLUT1 [6] (MDA-MB-231, 1uM), 4.491 nmol / mg protein x 6 min and 4.087 nmol / mg protein x 6 min and 3.799 nmol / mg protein x 6 min; on GLUT1 [7] (HPAFII, 1uM), 2.423 nmol / mg protein x 6 min and 2.258 nmol / mg protein x 6 min and 2.749 nmol / mg protein x 6 min.

Source of the values: article PMC9532951, “Identification and characterization of a novel SNAT2 (SLC38A2) inhibitor reveals synergy with glucose transport inhibition in cancer cells” (Frontiers in Pharmacology, 2022).
